Patent US4026888A, “Certain derivatives of particular 3-thiolated cephalosporins” (priority 1976, dated 1977)
Values after ≈ are worked out from the molar mass of the structure shown. One block for each compound: values may come before it.

How the values were obtained:
Stability of solids = type: physicochemical; conditions: solid, read-out: Loss of bioactivity on storage at elevated temperatures
Water solubility = type: physicochemical; conditions: in water at 23° C., read-out: Water solubility
P. mirabilis A9900 [1] = experiment: Oral PD50 in mice; type: in vivo; conditions: oral, mice treated at 1 and 3.5 hours post-challenge
E. coli A15119 = experiment: Oral PD50 in mice; type: in vivo; conditions: Escherichia coli, A15119, po, 3.5 h, oral; mice treated at 1 and 3.5 hours post-challenge; read-out: PD50
Experimental: (§1) Comparative Oral PD50 Values of
(§2) BL-S640 Derivatives in Mice
(§3) *Mice were treated at 1 and 3.5 hours post-challenge.

S. pyogenes A9604 = experiment: Oral PD50 in mice; type: in vivo; conditions: Streptococcus pyogenes, mice treated at 1 and 3.5 hours post-challenge
Experimental: as §1, §2, §3

K. pneumoniae A9977 [2] = experiment: Oral PD50 in mice; type: in vivo; conditions: Klebsiella pneumoniae, A9977; oral; mice treated at 1 and 3.5 hours post-challenge; read-out: PD50
Experimental: as §1, §2, §3

P. mirabilis A9707 = experiment: Oral PD50 in mice; type: in vivo; conditions: Proteus mirabilis, mice treated at 1 and 3.5 hours post-challenge
Experimental: as §1, §2, §3

P. mirabilis A9900 [3] = experiment: IM PD50 in mice; type: in vivo; conditions: Proteus mirabilis
Excerpt: Comparative IM PD50 Values of
as §2

Str. pyogenes A9604 = experiment: Antibiotic activity in nutrient broth (MIC); type: cell-based; conditions: Streptococcus pyogenes, A9604, inoculum 10^-3; 45% AAB + 5% serum + 50% broth; derivatives adjusted for BL-S640 content; read-out: MIC
Excerpt: (§4) Antibiotic Activity In Nutrient Broth
(§5) * 45% AAB+ 5% serum+ 50% broth listed above.
(§6) ** Dilution of overnight broth culture.
(§7) Antibiotic Spectrum Nutrient Broth
(§8) * 45% AAB + 5% serum + 50% broth
(§9) Antibiotic Spectrum in Nutrient Broth
(§10) *45% AAB + 5% serum + 50% broth listed above.

Str. pneumoniae A9585 = experiment: Antibiotic activity in nutrient broth (MIC); type: cell-based; conditions: Streptococcus pneumoniae, A9585, inoculum 10^-3 dilution of overnight broth culture; 45% AAB + 5% serum + 50% broth; derivatives adjusted for BL-S640 content
Excerpt: as §4, §5, §6, §7, §8, §9, §10

S. aureus BX1633 A9606 = experiment: Antibiotic activity in nutrient broth (MIC); type: cell-based; conditions: Staphylococcus aureus, derivatives adjusted for BL-S640 content
Excerpt: as §4, §6, §7, §9

E. coli Juhl A15119 = experiment: Antibiotic activity in nutrient broth (MIC); type: cell-based; conditions: Escherichia coli, JUHLA15119
Excerpt: as §4, §6, §7, §9

Ent. cloacae A9657 = experiment: Antibiotic activity in nutrient broth (MIC); type: cell-based; conditions: Enterobacter cloacae, A9657, inoculum 10^-4; derivatives adjusted for BL-S640 content; read-out: MIC
Excerpt: as §4, §6, §7, §9

Ent. cloacae A9659 = experiment: Antibiotic activity in nutrient broth (MIC); type: cell-based; conditions: Enterobacter cloacae, A9659
Excerpt: as §4, §6, §7, §9

Pr. morganii A15153 = experiment: Antibiotic activity in nutrient broth (MIC); type: cell-based; conditions: Morganella morganii, A15153
Excerpt: as §4, §6, §7, §9

K. pneumoniae A15130 = experiment: Antibiotic activity in nutrient broth (MIC); type: cell-based; conditions: Klebsiella pneumoniae, A15130
Excerpt: as §4, §6, §7, §9

S. aureus Smith A9537 = experiment: Antibiotic activity in nutrient broth (MIC); type: cell-based; conditions: Staphylococcus aureus, SMITHA9537, inoculum 10^-4, derivatives adjusted for BL-S640 content
Excerpt: as §4, §6, §7, §9

K. pneumoniae A9977 [4] = experiment: Antibiotic activity in nutrient broth (MIC); type: cell-based; conditions: Klebsiella pneumoniae
Excerpt: as §4, §6, §7, §9

E. coli A9675 = experiment: Antibiotic activity in nutrient broth (MIC); type: cell-based; conditions: Escherichia coli, A9675
Excerpt: as §4, §6, §7, §9

Ser. marcescens A20019 = experiment: Antibiotic activity in nutrient broth (MIC); type: cell-based; conditions: Serratia marcescens, A20019, inoculum 10^-4; derivatives adjusted for BL-S640 content
Excerpt: as §4, §6, §7, §9

Ent. cloacae A9656 = experiment: Antibiotic activity in nutrient broth (MIC); type: cell-based; conditions: Enterobacter cloacae, A9656, inoculum 10^-4; derivatives adjusted for BL-S640 content
Excerpt: as §4, §6, §7, §9

Ps. aeruginosa A9843A = experiment: Antibiotic activity in nutrient broth (MIC); type: cell-based; conditions: Pseudomonas aeruginosa
Excerpt: as §4, §6, §7, §9

Sal. enteritidis A9531 = experiment: Antibiotic activity in nutrient broth (MIC); type: cell-based; conditions: Salmonella enterica, ENTERITIDIS, inoculum 10^-4; derivatives adjusted for BL-S640 content; read-out: MIC
Excerpt: as §4, §6, §7, §9

[5] = tested on: S. aureus Meth-Res A15097; experiment: Antibiotic activity in nutrient broth (MIC); type: cell-based; conditions: Staphylococcus aureus
Excerpt: as §4, §6, §7, §9

Pr. mirabilis A9900 = experiment: Antibiotic activity in nutrient broth (MIC); type: cell-based; conditions: Proteus mirabilis, inoculum 10^-4, derivatives adjusted for BL-S640 content
Excerpt: as §4, §6, §7, §9

degraded at 720 h (Stability of solids; 56° C., 1 month): < 10% | degraded at 24 h (Stability of solids; 100° C., 24 hours): < 6% | degraded at 48 h (Stability of solids; 100° C., 48 hours): < 12% | solubility (Water solubility): ~10000 µg/mL
SMILES: N[C@@H](C(=O)N[C@@H]1C(=O)N2C(C(=O)O)=C(CSc3c[nH]nn3)CS[C@H]12)c1ccc(O)cc1 [7-[D-α-amino-α-(p-hydroxyphenyl)acetamido]-3-(1,2,3-triazol-5-ylthiomethyl)-3-cephem-4-carboxylic acid propylene glycol solvate]

SMILES: CC1=C(C(=O)O)N2C(=O)[C@@H](NC(=O)[C@H](N)c3ccccc3)[C@H]2SC1 [Cephalexin, reference compound]
ED50 (P. mirabilis A9900 [1]; Proteus mirabilis, A9900, po, 3.5 h, read-out: PD50): 66 mg/kg | PD50 (P. mirabilis A9900 [1]): 55 mg./kg./treatment | ED50 (E. coli A15119): 13 mg/kg | ED50 (S. pyogenes A9604): 11 mg/kg | ED50 (K. pneumoniae A9977 [2]): 43 mg/kg | ED50 (P. mirabilis A9707): 50 mg/kg | ED50 (P. mirabilis A9900 [3]): 50 mg/kg

SMILES: CC(=O)OCC1=C(C(=O)O)N2C(=O)[C@@H](NC(=O)Cc3cccs3)[C@H]2SC1 [Cephalothin, reference compound]
MIC (Str. pyogenes A9604): 0.03 µg/mL | MIC (Str. pneumoniae A9585): 0.03 µg/mL | MIC (S. aureus BX1633 A9606; BX1633A9606, inoculum 10^-2): 0.25 µg/mL (≈ 0.631 µM) | MIC (S. aureus BX1633 A9606; BX1633A9606, inoculum 10^-3): 0.13 µg/mL (≈ 0.328 µM) | MIC (E. coli Juhl A15119): 16 µg/mL (≈ 40.4 µM) | MIC (Ent. cloacae A9657): 8 µg/mL (≈ 20.2 µM) | MIC (Ent. cloacae A9659): > 125 µg/mL | MIC (Pr. morganii A15153): > 125 µg/mL | MIC (K. pneumoniae A15130): 32 µg/mL (≈ 80.7 µM) | MIC (S. aureus Smith A9537; + 50% serum): 0.5 µg/mL | MIC (S. aureus Smith A9537; nutrient broth): 0.13 µg/mL (≈ 0.328 µM) | MIC (K. pneumoniae A9977 [4]): 1 µg/mL (≈ 2.52 µM) | MIC (E. coli A9675): 32 µg/mL (≈ 80.7 µM) | MIC (Ser. marcescens A20019): > 125 µg/mL | MIC (Ent. cloacae A9656): > 125 µg/mL | MIC (Ps. aeruginosa A9843A): > 125 µg/mL | MIC (Sal. enteritidis A9531): 0.25 µg/mL (≈ 0.631 µM) | MIC [5]: 1 to 16 µg/mL (≈ 2.52 to 40.4 µM) | MIC (Pr. mirabilis A9900): 1 µg/mL (≈ 2.52 µM)
